# In patent EP0623672A1, “New alkaline serine protease of Paecilomyces lilacinus” (RESEARCH INSTITUTE FOR PLANT PROTECTION, priority 1993, dated 1994):
# Where two headings read alike, the source gives them in different places.
# Experiments:
# [1] = molecular target: serine protease of Paecilomyces lilacinus (Purpureocillium lilacinum, UniProt Q01471); type: biochemical
# Protocol: (§1) Protease activity was determined by a modified procedure of Rinderknecht et al. (1968). Ten mg of Hide Powder Azure (Sigma) was incubated in 50 mM Sodium acetate buffer pH 6.0 with the sample in a final volume of 3 ml in small glass containers. Incubation was at 37 °C in a shaking waterbath (110 strokes(min) till the solution turned blue (between 5 and 30 minutes). Following incubation the samples were put on ice and centrifuged in 1.5 ml Eppendorf cups for 5 minutes at 14.000 g. The absorbance of the supernatant was measured at 595 nm on a Uvikon 940 spectrophotometer. Protease activity of the sample was measured in duplo, averaged and expressed as A₅₉₅ ml⁻¹hr⁻¹ after correction for the blank (Milli Q water).
# Several protease inhibitors, SH reducing agents and metal ions were tested on the proteolytic activity of the protease: PMSF, E64, 1.10-phenantroline, pepstatine (Sigma); EDTA, cystein MgCl₂ and CaCl₂ (Merck); DTT (BioRad). The purified enzyme was incubated for 40 minutes at 4 °C with inhibitor. After incubation the protease-activity was determined as previously described. Final inhibitor concentration was 1 mM. Protease activity in the absence of inhibitor was expressed as 100 %.
# Paecilomyces lilacinus = assay: Catabolite repression of protease induction in liquid culture; type: cell-based; details: glucose 0.3 % added each day to MNNC (chitin as substrate); mycelium as inoculum; Figure 2
# Protocol: In one experiment mycelium of Paecilomyces lilacinus was used as inoculum. Mycelium was obtained by centrifuging a 6 day old culture of conidia of P. lilacinus in MMNG for 45 minutes at 9000 g. Cultures were grown in a shaking waterbath for several days at 30 °C and 125 strokes per minute. Culture filtrates were obtained by centrifuging cultures for 45 min at 9000 g. Supernatants were concentrated using an Amicon (YM-10 filter) and clarified through a 0.22 µm-filter (Schleicher & Schuell). Pellets were freeze dried and the weigth of the mycelium was measured.
# as §1, with “Ten mg of Hide Powder Azure (Sigma) was incubated in 50 mM Sodium acetate buffer pH 6.0 with the sample in a final volume of 3 ml in small glass containers.” left out
# To see whether the fungus used glucose as carbon sourece, glucose concentrations were determined in the culture filtrate, of the fungus in MNNG (Figure 1). […]
# [2] = test system: proteolytic activity in the culture filtrate; assay: Inhibition of proteolytic activity in the culture filtrate by protease inhibitors; type: biochemical, Paecilomyces lilacinus
# Protocol: as §1
# To identify the nature of the protease the proteolytic activity in the culture filtrate was inhibited with several protease inhibitors. […] Purification of the serine protease(s) was first performed with Benzamidine-Sepharose, an affinity resin for serine proteases of class I (Pharmacia).
# [3] = 1 mM final, 40 minutes at 4 °C, Figure 7
# serine protease of Paecilomyces lilacinus, sequence (Q01471 entry or part of it): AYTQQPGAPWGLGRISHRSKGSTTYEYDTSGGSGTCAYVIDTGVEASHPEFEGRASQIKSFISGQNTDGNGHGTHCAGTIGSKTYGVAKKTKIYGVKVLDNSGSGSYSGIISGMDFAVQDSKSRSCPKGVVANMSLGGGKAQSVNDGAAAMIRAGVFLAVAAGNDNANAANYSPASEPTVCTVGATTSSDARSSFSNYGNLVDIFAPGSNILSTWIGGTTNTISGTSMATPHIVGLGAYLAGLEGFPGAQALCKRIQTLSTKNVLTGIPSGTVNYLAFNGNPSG
Compound,"effect on the proteolytic activity of the purified protease [1, 3]",other results
N[C@@H](CS)C(=O)O [cystein],did not influence its activity,–
CaCl₂ [Ca⁺⁺],lowered the protease activity slightly,–
O=C(O)CN(CCN(CC(=O)O)CC(=O)O)CC(=O)O [EDTA],–,effect on the proteolytic activity of the purified protease [1]: enhanced its activity
OC[C@H]1OC(O)[C@H](O)[C@@H](O)[C@@H]1O (some centres unmarked) [glucose],–,induction of protease activity (Paecilomyces lilacinus): repressed
OC(CS)C(O)CS (centres unmarked) [DTT],did not influence its activity,–
O=S(=O)(F)Cc1ccccc1 [PMSF],–,"inhibition of the proteolytic activity in the culture filtrate [2]: most of the protease activity present in the medium was inhibited; inhibition of the activity of the purified protease ([1]; inhibitor 1 mM final, 40 minutes at 4 °C, activity without inhibitor = 100 %, Figure 7): 100%"
MgCl₂ [Mg⁺⁺],lowered the protease activity slightly,–
